# Patent publication US12343326B2, “Psychoactive medicines and their use for treating psychiatric and neurological conditions and disorders” (Transcend Therapeutics, Inc., priority 2021, dated 2025)
# Tests used:
# Experiment in all cases: β-arrestin based GPCR screen (PathHunter / GPCRmax), antagonist mode
# 168 GPCRs [1] = biological target: 168 GPCRs (Homo sapiens, UniProt Q9HBW0)
# 168 GPCRs [2] = biological target: 168 GPCRs (Homo sapiens, UniProt P30411); settings: BDKRB2, Antagonist
# 168 GPCRs [3] = biological target: 168 GPCRs (Homo sapiens, UniProt P46091)
# 168 GPCRs [4] = biological target: 168 GPCRs (Homo sapiens, UniProt P55085)
# 168 GPCRs [5] = biological target: 168 GPCRs (Homo sapiens, UniProt P41968); settings: MC3R
# 168 GPCRs [6] = biological target: 168 GPCRs (Homo sapiens, UniProt Q9Y5N1)
# 168 GPCRs [7] = biological target: 168 GPCRs (Homo sapiens, UniProt P61073)
# 168 GPCRs [8] = biological target: 168 GPCRs (Homo sapiens, UniProt P47871); settings: GCGR
# 168 GPCRs [9] = biological target: 168 GPCRs (Homo sapiens, UniProt P29371)
# 168 GPCRs [10] = biological target: 168 GPCRs (Homo sapiens, UniProt P34998)
# 168 GPCRs [11] = biological target: 168 GPCRs (Homo sapiens, UniProt O43603)
# 168 GPCRs [12] = biological target: 168 GPCRs (Homo sapiens, UniProt P41597); settings: CCR2, Antagonist
# 168 GPCRs [13] = biological target: 168 GPCRs (Homo sapiens, UniProt O00574)
# 168 GPCRs [14] = biological target: 168 GPCRs (Homo sapiens, UniProt P51681); settings: CCR5, CCR5, Antagonist
# 168 GPCRs [15] = biological target: 168 GPCRs (Homo sapiens, UniProt P32239); settings: CCKBR, Antagonist
# 168 GPCRs [16] = biological target: 168 GPCRs (Homo sapiens, UniProt P43116)
# 168 GPCRs [17] = biological target: 168 GPCRs (Homo sapiens, UniProt P20309); settings: CHRM3, Antagonist
# 168 GPCRs [18] = biological target: 168 GPCRs (Homo sapiens, UniProt P16473); settings: TSHR(L)
# 168 GPCRs [19] = biological target: 168 GPCRs (Homo sapiens, UniProt Q9H3N8)
# 168 GPCRs [20] = biological target: 168 GPCRs (Homo sapiens, UniProt O14842)
# 168 GPCRs [21] = biological target: 168 GPCRs (Homo sapiens, UniProt Q9UKP6)
# 168 GPCRs [22] = biological target: 168 GPCRs (Homo sapiens, UniProt P43115)
# Sequence of 168 GPCRs (Homo sapiens, UniProt P43115) (P43115 whole entry): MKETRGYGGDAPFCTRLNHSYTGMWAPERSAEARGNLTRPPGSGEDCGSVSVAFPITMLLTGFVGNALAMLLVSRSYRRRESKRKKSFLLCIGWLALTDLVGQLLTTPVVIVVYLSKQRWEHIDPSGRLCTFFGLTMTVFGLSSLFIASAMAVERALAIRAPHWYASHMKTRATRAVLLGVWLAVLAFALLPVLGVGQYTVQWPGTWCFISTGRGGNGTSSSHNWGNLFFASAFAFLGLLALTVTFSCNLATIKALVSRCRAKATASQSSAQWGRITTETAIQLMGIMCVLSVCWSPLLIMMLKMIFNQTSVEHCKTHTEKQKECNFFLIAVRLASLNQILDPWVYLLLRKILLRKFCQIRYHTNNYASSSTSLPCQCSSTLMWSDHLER
# Sequence of 168 GPCRs (Homo sapiens, UniProt O00574) (O00574 whole entry): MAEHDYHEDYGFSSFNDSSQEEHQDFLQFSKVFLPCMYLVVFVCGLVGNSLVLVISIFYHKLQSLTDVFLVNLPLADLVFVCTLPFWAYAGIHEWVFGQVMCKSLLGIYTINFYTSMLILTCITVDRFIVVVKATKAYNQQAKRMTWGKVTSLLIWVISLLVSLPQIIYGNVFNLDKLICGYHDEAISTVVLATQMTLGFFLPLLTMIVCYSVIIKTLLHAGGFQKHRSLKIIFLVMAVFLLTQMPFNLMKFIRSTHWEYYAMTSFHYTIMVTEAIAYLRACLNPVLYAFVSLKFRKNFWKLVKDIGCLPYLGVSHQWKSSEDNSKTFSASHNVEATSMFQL
# Sequence of 168 GPCRs (Homo sapiens, UniProt Q9H3N8) (Q9H3N8 whole entry): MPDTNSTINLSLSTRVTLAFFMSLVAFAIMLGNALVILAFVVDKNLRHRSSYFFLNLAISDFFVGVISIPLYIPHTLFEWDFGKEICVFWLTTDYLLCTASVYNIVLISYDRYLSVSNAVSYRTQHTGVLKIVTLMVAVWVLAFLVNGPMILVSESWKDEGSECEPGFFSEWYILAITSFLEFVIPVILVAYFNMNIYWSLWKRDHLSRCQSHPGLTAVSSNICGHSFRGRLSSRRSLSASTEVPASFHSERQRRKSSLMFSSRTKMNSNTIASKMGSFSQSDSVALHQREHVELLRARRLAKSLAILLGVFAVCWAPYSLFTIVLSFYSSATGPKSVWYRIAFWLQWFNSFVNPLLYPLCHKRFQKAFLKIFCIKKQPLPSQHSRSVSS
# Sequence of 168 GPCRs (Homo sapiens, UniProt P43116) (P43116 whole entry): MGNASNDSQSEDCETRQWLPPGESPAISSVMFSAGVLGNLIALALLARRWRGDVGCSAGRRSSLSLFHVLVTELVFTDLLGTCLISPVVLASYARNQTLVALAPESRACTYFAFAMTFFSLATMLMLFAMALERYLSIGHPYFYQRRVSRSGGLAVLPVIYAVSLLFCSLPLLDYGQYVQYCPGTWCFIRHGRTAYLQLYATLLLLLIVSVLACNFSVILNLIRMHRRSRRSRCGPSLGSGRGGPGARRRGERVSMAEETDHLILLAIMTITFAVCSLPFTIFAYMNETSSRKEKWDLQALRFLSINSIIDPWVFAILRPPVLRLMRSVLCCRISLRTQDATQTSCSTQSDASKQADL
# Sequence of 168 GPCRs (Homo sapiens, UniProt Q9HBW0) (Q9HBW0 whole entry): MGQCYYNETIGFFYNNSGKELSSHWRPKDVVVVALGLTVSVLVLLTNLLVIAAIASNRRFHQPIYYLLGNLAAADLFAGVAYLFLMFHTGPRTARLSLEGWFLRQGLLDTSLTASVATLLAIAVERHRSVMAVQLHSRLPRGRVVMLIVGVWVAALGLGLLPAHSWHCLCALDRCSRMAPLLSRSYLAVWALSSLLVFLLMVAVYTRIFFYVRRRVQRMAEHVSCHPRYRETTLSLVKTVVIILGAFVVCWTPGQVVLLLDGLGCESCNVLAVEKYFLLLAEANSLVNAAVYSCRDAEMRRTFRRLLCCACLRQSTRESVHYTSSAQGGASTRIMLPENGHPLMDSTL
# Sequence of 168 GPCRs (Homo sapiens, UniProt P47871) (P47871 26-477): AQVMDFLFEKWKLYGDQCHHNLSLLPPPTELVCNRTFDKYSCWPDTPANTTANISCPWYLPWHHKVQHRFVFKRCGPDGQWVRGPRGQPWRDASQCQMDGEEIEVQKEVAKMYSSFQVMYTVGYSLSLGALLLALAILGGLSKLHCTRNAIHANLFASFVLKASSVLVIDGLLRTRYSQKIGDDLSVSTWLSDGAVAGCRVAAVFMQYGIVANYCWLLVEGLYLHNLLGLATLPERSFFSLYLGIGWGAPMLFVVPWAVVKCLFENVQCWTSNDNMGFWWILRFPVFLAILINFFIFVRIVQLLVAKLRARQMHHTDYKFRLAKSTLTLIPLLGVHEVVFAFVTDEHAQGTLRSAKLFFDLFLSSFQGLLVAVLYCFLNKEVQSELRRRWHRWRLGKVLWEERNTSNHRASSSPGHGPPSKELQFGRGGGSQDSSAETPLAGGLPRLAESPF
# Sequence of 168 GPCRs (Homo sapiens, UniProt P29371) (P29371 whole entry): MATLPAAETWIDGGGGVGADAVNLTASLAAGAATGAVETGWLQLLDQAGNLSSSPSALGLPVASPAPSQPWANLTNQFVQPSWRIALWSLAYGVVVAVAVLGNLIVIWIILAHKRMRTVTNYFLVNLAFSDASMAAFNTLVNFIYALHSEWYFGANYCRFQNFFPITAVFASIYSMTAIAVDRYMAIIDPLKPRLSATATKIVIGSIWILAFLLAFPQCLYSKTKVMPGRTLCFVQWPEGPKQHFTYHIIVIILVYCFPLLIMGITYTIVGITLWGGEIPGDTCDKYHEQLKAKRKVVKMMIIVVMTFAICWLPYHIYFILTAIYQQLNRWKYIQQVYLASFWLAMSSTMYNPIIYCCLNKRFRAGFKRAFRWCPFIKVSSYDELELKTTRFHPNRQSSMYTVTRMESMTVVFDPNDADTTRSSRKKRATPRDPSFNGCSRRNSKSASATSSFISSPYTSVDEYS
# Sequence of 168 GPCRs (Homo sapiens, UniProt P20309) (P20309 whole entry): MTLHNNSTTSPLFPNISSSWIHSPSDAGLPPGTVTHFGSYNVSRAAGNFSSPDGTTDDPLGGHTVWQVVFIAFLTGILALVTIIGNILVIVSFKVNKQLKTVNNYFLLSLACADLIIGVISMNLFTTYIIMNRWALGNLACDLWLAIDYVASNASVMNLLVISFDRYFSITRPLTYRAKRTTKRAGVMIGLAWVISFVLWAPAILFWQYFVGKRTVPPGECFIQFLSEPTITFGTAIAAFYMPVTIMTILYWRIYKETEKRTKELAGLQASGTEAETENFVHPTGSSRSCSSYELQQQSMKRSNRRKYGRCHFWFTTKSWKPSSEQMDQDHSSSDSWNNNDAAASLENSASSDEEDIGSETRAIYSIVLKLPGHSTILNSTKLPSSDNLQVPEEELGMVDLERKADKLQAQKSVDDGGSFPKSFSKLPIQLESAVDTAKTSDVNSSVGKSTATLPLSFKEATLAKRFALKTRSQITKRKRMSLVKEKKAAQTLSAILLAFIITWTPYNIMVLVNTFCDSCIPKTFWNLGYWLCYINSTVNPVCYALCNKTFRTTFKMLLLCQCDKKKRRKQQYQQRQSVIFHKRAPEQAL
# Sequence of 168 GPCRs (Homo sapiens, UniProt O14842) (O14842 whole entry): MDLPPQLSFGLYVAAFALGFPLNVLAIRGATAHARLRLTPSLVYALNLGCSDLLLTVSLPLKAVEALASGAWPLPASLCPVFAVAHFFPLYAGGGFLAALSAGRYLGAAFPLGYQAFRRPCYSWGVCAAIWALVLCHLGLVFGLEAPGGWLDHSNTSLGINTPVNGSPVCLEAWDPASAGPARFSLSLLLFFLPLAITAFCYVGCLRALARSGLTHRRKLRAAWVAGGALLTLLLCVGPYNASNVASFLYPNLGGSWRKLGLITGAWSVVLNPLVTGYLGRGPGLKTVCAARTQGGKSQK
# Sequence of 168 GPCRs (Homo sapiens, UniProt Q9UKP6) (Q9UKP6 whole entry): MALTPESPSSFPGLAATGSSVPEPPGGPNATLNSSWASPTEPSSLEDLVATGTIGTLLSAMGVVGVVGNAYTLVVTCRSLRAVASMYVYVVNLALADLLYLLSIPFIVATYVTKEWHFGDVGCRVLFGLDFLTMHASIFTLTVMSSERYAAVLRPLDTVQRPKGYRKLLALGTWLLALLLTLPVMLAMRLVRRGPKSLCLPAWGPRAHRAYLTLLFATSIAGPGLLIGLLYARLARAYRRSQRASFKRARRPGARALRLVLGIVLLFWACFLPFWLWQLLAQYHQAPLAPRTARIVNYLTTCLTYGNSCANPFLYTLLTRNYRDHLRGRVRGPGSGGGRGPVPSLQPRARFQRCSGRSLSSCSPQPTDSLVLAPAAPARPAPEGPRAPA
# Sequence of 168 GPCRs (Homo sapiens, UniProt P41597) (P41597 whole entry): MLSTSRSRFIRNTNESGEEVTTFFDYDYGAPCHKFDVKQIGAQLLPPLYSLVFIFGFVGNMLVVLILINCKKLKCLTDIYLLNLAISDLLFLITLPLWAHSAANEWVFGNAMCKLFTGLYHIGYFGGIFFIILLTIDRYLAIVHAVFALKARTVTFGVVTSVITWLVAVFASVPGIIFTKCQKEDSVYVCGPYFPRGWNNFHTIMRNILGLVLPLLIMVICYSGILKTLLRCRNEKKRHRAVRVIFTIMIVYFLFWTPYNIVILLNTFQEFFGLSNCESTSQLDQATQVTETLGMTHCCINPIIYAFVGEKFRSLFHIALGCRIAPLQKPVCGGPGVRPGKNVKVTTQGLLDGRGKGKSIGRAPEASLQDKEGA
# Sequence of 168 GPCRs (Homo sapiens, UniProt P32239) (P32239 whole entry): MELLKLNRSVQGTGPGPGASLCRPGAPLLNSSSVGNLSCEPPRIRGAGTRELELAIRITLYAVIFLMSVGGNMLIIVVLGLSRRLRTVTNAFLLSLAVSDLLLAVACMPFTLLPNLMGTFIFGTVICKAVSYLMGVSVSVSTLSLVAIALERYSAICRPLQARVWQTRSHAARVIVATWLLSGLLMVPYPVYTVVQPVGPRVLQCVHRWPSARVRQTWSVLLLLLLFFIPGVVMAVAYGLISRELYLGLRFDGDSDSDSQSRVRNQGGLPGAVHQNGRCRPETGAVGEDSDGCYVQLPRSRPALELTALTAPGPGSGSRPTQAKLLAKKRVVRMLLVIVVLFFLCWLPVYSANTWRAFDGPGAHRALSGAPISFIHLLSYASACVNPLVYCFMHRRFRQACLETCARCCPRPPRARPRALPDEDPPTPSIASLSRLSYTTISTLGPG
compound,measurement,setting,value
"CNC(C)C(=O)c1ccc2c(c1)OCO2 (centres unmarked) [methylone, 3,4-methylenedioxy-N-methylcathinone]",activity at 10 µM,"168 GPCRs [1]; EDG4, Antagonist mode, 10 uM",-21%
same,activity at 1 µM,"168 GPCRs [1]; EDG4, Antagonist, 1 uM",-10.2%
same,activity at 1 µM,168 GPCRs [2]; 1 uM,7.3%
same,activity at 10 µM,168 GPCRs [2]; 10 uM,-2.6%
same,activity at 10 µM,"168 GPCRs [3]; GPR1, Antagonist mode, 10 uM",7.4%
same,activity at 1 µM,"168 GPCRs [3]; GPR1, Antagonist, 1 uM",4.4%
same,activity at 10 µM,"168 GPCRs [4]; F2RL1, Antagonist mode, 10 uM",16.2%
same,activity at 1 µM,"168 GPCRs [4]; F2RL1, Antagonist, 1 uM",-26.8%
same,activity at 10 µM,"168 GPCRs [5]; Antagonist mode, 10 uM",0.3%
same,activity at 1 µM,"168 GPCRs [5]; Antagonist, 1 uM",-5.7%
same,activity at 10 µM,"168 GPCRs [6]; HRH3, Antagonist mode, 10 uM",5.8%
same,activity at 1 µM,"168 GPCRs [6]; HRH3, Antagonist, 1 uM",9.5%
same,activity at 10 µM,"168 GPCRs [7]; CXCR4, Antagonist mode, 10 uM",-4.2%
same,activity at 1 µM,"168 GPCRs [7]; CXCR4, Antagonist, 1 uM",10.7%
same,activity at 10 µM,"168 GPCRs [8]; Antagonist mode, 10 uM",-7.7%
same,activity at 1 µM,"168 GPCRs [8]; Antagonist, 1 uM",-16%
same,activity at 10 µM,"168 GPCRs [9]; TACR3, Antagonist mode, 10 uM",-14.3%
same,activity at 1 µM,"168 GPCRs [9]; TACR3, Antagonist, 1 uM",-3.9%
same,activity at 10 µM,"168 GPCRs [10]; CRHR1, Antagonist mode, 10 uM",0.6%
same,activity at 1 µM,"168 GPCRs [10]; CRHR1, Antagonist, 1 uM",1.3%
same,activity at 10 µM,"168 GPCRs [11]; GALR2, Antagonist mode, 10 uM",1.5%
same,activity at 1 µM,"168 GPCRs [11]; GALR2, Antagonist, 1 uM",7%
same,activity at 1 µM,168 GPCRs [12]; 1 uM,2%
same,activity at 10 µM,168 GPCRs [12]; 10 uM,4.9%
same,activity at 10 µM,"168 GPCRs [13]; CXCR6, Antagonist mode, 10 uM",12.6%
same,activity at 1 µM,"168 GPCRs [13]; CXCR6, Antagonist, 1 uM",27.2%
same,activity at 1 µM,168 GPCRs [14]; 1 uM,1.7%
same,activity at 10 µM,168 GPCRs [14]; 10 uM,-0.5%
same,activity at 1 µM,168 GPCRs [15]; 1 uM,-1.1%
same,activity at 10 µM,168 GPCRs [15]; 10 uM,-2.4%
same,activity at 10 µM,"168 GPCRs [16]; PTGER2, Antagonist mode, 10 uM",-4.4%
same,activity at 1 µM,"168 GPCRs [16]; PTGER2, Antagonist, 1 uM",12.7%
same,activity at 1 µM,168 GPCRs [17]; 1 uM,-5.5%
same,activity at 10 µM,168 GPCRs [17]; 10 uM,14.6%
same,activity at 10 µM,"168 GPCRs [18]; Antagonist mode, 10 uM",-6.6%
same,activity at 1 µM,"168 GPCRs [18]; Antagonist, 1 uM",6.1%
same,activity at 10 µM,"168 GPCRs [19]; HRH4, Antagonist mode, 10 uM",-14%
same,activity at 1 µM,"168 GPCRs [19]; HRH4, Antagonist, 1 uM",-11.6%
same,activity at 10 µM,"168 GPCRs [20]; FFAR1, Antagonist mode, 10 uM",-13.8%
same,activity at 1 µM,"168 GPCRs [20]; FFAR1, Antagonist, 1 uM",-7.9%
same,activity at 10 µM,"168 GPCRs [21]; UTR2, Antagonist mode, 10 uM",4.2%
same,activity at 1 µM,"168 GPCRs [21]; UTR2, Antagonist, 1 uM",-2.1%
same,activity at 10 µM,"168 GPCRs [22]; PTGER3, Antagonist mode, 10 uM",5.7%
same,activity at 1 µM,"168 GPCRs [22]; PTGER3, Antagonist, 1 uM",-6.2%
